Counter-ions that a name gives are not always drawn. Like-named read-outs stand apart in the source and are kept apart here.
Columns and labels:
[1] = biological target: T1, angiotensin-induced vasoconstriction (rabbit aorta) (Oryctolagus cuniculus, UniProt P34976); assay: Rabbit Aorta Test System: antagonism of angiotensin II-induced contraction of aortic rings; assay type: cell-based, New Zealand white rabbits
T1 construct: the thoracic aortas were removed and cleaned of excess fat and connective tissue; from tissue; host or cells: thoracic aorta rings of New Zealand white rabbits
T1 sequence (P34976 1-359): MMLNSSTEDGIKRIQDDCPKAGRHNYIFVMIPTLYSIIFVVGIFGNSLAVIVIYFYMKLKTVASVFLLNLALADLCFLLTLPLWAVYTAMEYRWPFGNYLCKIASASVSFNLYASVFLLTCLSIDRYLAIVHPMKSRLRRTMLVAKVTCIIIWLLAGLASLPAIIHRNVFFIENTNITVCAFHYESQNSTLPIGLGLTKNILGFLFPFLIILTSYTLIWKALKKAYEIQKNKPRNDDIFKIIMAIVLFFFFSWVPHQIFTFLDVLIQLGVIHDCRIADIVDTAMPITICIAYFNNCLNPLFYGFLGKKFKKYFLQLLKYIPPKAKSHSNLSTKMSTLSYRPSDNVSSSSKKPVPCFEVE
Protocol: The ability to antagonize angiotensin-induced vasoconstriction was evaluated in the rabbit aorta test system.
New Zealand white rabbits (Hazelton, 2-3 kg) were sacrificed by cervical dislocation and the thoracic aortas were removed and cleaned of excess fat and connective tissue. Rings of tissue (3 mm wide) were mounted in 10 ml tissue baths between 2 L-shaped stainless steel hooks. The lower hook was attached to a stationary rod and the upper hook to a force displacement transducer (Grass model FT.03). The bath chambers were maintained at 37° C., aerated with 95% O2 /5% CO2, and contained physiological solution of the following composition (mM): NaCl, 117; glucose, 5.6; NaH2 PO4, 1.0; MgSO4, 0.7; KCl, 5.2; CaCl2, 1.8; NaHCO3, 26; and phentolamine HCl, 0.003.
Rings were equilibrated for 1 hour with 2 g of tension. During the equilibration period, the tissues were washed by overflow every 15 minutes. Rings were then exposed to 10^-8 M angiotensin II (AII) and were allowed to contract until a steady state was reached. Tissues were then washed every 15 minutes for 1 hour. This was repeated every hour until the AII response stabilized. A cumulative concentration-response curve to AII (10^-10 to 10^-7 M) was then obtained. At the conclusion of the concentration-response curve, tissues were washed every 2 minutes until baseline tension was reached, then every 15 minutes for 30 minutes. Compounds were added in a volume of 10 μl DMSO and allowed to incubate for 30 minutes before repeating the concentration-response curve to AII. Contractions to AII were expressed as a percent of the maximum contraction obtained in the control curve (the first AII concentration-response curve). EC50 's (concentration that contracted the tissues to 1/2 the control maximum) for each curve were calculated using a 4 parameter logistics model (NonLin, SAS institute).

[2] = system: angiotensin II receptor; assay: Adrenal Glomerulosa Test System: I125-angiotensin II binding to adrenal membranes; conditions: percent inhibition of I125 angiotensin binding at 10^-5 M of antagonist; rat adrenal membranes; 0.1 nM I125-angiotensin II
Protocol: The ability for compounds of Formula I to block angiotensin II receptor binding was determined using the adrenal glomerulosa assay.
Binding of I^125 -angiotensin II to adrenal membranes was routinely carried out in 96-well filtration plates. Adrenal membranes were prepared from the capsular portion (glomerulosal layer attached) of rat adrenal glands by differential centrifugation. Briefly, capsules were homogenized in a solution containing sucrose, 250 mM; MgCl2, 1 mM; and tris, 5 mM at pH 7.5 and 4° C. using a polytron at setting 5 for 20 seconds. The homogenate was stirred, gently, for 15 minutes at 4° C. and then centrifuged 10 minutes, at 1000×g, 4° C. The supernatant was centrifuged 30 minutes, at 30,000 ×g, 4° C. and the resulting pellet resuspended in 50 mM tris. Membrane preparations were stored in aliquots at -70° C. until used. Binding of I^125 -angiotensin II to adrenal membranes was performed at room temperature for 90 minutes in 96-well plates containing a hydrophilic polyvinylidene fluoride membrane (0.45 μm, millipore-GV multiscreen). Each 250 μl incubate contained the following (final concentration): tris, 50 mM; NaCl, 120 mM; MgCl2, 5 mM; dithiothrietol 1 mM; bovine serum albumin, 0.05%; I^125 -angiotensin II, 0.1 nM; and adrenal membrane protein, 8-15 μg. Antagonists were added in concentrations from 10 nM to 100 μM. Non-specific binding was measured in the presence of 0.1 μM Sar1, Ile8 angiotensin II. Binding was terminated by vacuum filtration. Receptor-ligand complex trapped on filters was washed 3 times with 300 μl ice-cold wash solution (tris, 50 mM; NaCl, 120 mM; MgCl2, 5 mM; dithiothrietol, 1 mM). Filter discs were dried, punched out and counted in a gamma counter at 52% efficiency. Specific binding represented 96% of total binding (approximately 150 fmol angiotensin II/mg protein). Data are expressed as the percent inhibition of I^125 angiotensin binding at 10^-5 M of antagonist.

[3] = pA2 = -log KB, KB = [molar concentration of antagonist]/[(EC50 AII with antagonist/EC50 AII without antagonist)-1], 30 min incubation, AII 10^-10 to 10^-7 M, read-out: Rabbit Aorta (pA2) (converted)

| Kb [1, 3] | Adrenal Glomerulosa (% Inhibition of Binding) [2] | SMILES | Kb [1] |
| --- | --- | --- | --- |
| 3.31 µM | 39% | CCCCCCC(C(=O)OCC)n1cnc(NC(=O)c2ccccc2C(=O)O)c1 (stereo not drawn) [Example 5, 4-[(2-Carboxybenzoyl)amino]-α-hexyl-1H-imidazole-1-acetic acid ethyl ester] | – |
| 18.2 µM | 25% | CCCCCCC(C(=O)OCC)c1ccc(NC(=O)c2ccccc2C(=O)O)cc1 (stereo not drawn) [Example 9, 4-[(2-Carboxybenzoyl)amino]-α-hexylbenzene-acetic acid ethyl ester] | – |
| 2.34 µM | 57% | CCCCCCC(CC(=O)OC)n1cnc(NC(=O)c2ccccc2C(=O)O)c1 (stereo not drawn) [Example 10, 4-[(2-Carboxybenzoyl)amino]-β-hexyl-1H-imidazole-1-propanoic acid methyl ester] | – |
| 2.51 µM | 44% | CCCCCCC(C#N)n1cnc(NC(=O)c2ccccc2C(=O)O)c1 (stereo not drawn) [Example 12, 4-[(2-Carboxybenzoyl)amino]-α-hexyl-1H-imidazole-1-acetonitrile] | – |
| 75.9 µM | 5% | CCCCCCC(C(=O)OCC)n1cnc(NC(=O)C2c3ccccc3-c3ccccc32)c1 (stereo not shown) [Example 15, 4-[(9H-Fluoren-9-ylcarbonyl)amino]-αhexyl-1H-imidazole-1-acetic acid ethyl ester] | – |
| 794 µM | 3% | CCCCCCC(C(=O)OCC)c1ccc(NC(=O)C2c3ccccc3-c3ccccc32)cc1 (stereo not drawn) [Example 18, 4-[(9H-Fluoren-9-ylcarbonyl)amino]-α-hexylbenzeneacetic acid ethyl ester] | – |
| 10.2 µM | 57% | CCCCCCC(C(=O)O)n1cnc(NC(=O)C(CC)(c2ccccc2)c2ccccc2)c1 (stereo not drawn) [Example 26, α-Hexyl-4-[(1-oxo-2,2-diphenylbutyl)amino]-1H-imidazole-1-acetic acid] | – |
| 0.141 µM | 64% | CCCCCCC(CC(=O)O)n1cnc(NC(=O)c2cccc(O)c2C(=O)O)c1.O (stereo not drawn) [Example 27, β-Hexyl-4-[(2-carboxy-3-hydroxybenzoyl)amino]-1H-imidazole-1-propanoic acid hydrate] | – |
| 3.47 µM | 10% | CCCCCCC(C(=O)O)n1cnc(NC(=O)c2ccc(C)cc2C(=O)O)c1 (stereo not drawn) [Example 28, α-Hexyl-4-[(2-carboxy-4-methylbenzoyl)amino]-1H-imidazole-1-acetic a cid] | – |
| – | – | CCCCCCC(C(=O)O)n1cnc(NC(=O)C(O)(c2ccccc2)c2ccccc2)c1 (stereo not drawn) [Example 29, α-Hexyl-[(hydroxydiphenylacetyl)amino]-1H-imidazole-1-acetic acid hydrochloride] | 25.7 µM |
| 0.11 µM | 66% | CCCCCCC(C(=O)O)n1cnc(NC(=O)c2cccc(O)c2C(=O)O)c1 (stereo not drawn) [Example 30, α-Hexyl-4-[(2-carboxy-3-hydroxybenzoyl)amino]-1H-imidazole-1-acetic monohydrate] | – |
| 3.09 µM | 70% | CCCCCCC(C(=O)O)n1cnc(NC(=O)C2c3ccccc3-c3ccccc32)c1 (stereo not drawn) [Example 31, α-Hexyl-9-[(9H-fluoren-9-ylcarbonyl)amino]-1H-imidazole-1-acetic acid hydrochloride] | – |
| 21.4 µM | 54% | CCCCCCC(C(=O)O)n1cnc(NC(=O)C2c3ccccc3Oc3ccccc32)c1.Cl.O (stereo not drawn) [Example 32, α-Hexyl-4-[(9H-xanthen-9-ylcarbonyl)amino]-1H-imidazole-1-acetic acid hydrochloride monohydrate] | – |
| 0.631 µM | 42% | CCCCCCC(C(=O)O)n1cnc(NC(=O)c2ccccc2C(=O)O)c1 (stereo not drawn) [Example 33, 4-[(2-Carboxybenzoyl)amino]-α-hexyl-1H-imidazole-1-acetic acid] | – |
| 1.91 µM | 31% | CCCCCCC(C(=O)O)n1cnc(NC(=O)Cc2ccccc2C(=O)O)c1.O (stereo not drawn) [Example 34, α-Hexyl-4-{[(2-carboxyphenyl)acetyl]-amino}-1H-imidazole-1-aceticacid hydrate] | – |
| 2.63 µM | 36% | CCCCCCC(C(=O)O)n1cnc(NC(=O)c2c(C(=O)O)ccc3ccccc23)c1 (stereo not drawn) [Example 35, α-Hexyl-4-{[(2-carboxy-1-naphthalenyl)carbonyl]amino}-1H-imidazole-1-acetic acid] | – |

| Kb [1, 3] | Adrenal Glomerulosa (% Inhibition of Binding) [2] | SMILES | Kb [1] |
| --- | --- | --- | --- |
| 11.7 µM | 5% | CCCCCCC(C(=O)O)n1cnc(NC(=O)c2cc(C(=O)O)ccc2O)c1 (stereo not drawn) [Example 36, α-Hexyl-4-[(2-hydroxy-5-carboxybenzoyl)amino]-1H-imidazole-1-acetic acid] | – |
| 1.58 µM | 0% | CCCCCCC(C(=O)O)n1cnc(NC(=O)c2c(F)cccc2C(=O)O)c1 (stereo not drawn) [Example 37, 4-[(2-Carboxy-6-fluorobenzoyl)amino]-α-hexyl-1H-imidazole-1-acetic a cid hydrate (1:2.5)] | – |
| 1.66 µM | 30% | CCCCCCC(C(=O)O)c1ccc(NC(=O)c2ccccc2C(=O)O)cc1 (stereo not drawn) [Example 38, α-Hexyl-4-[(2-carboxybenzoyl)amino]benzeneacetic acid] | – |
| 0.661 µM | 44% | CCCCCCC(CC(=O)O)n1cnc(NC(=O)c2ccccc2C(=O)O)c1.O (stereo not drawn) [Example 39, 4-[(2-Carboxybenzoyl)amino]-β-hexyl-1H-imidazole-1-propanoic acid monohydrate] | – |
| 1.62 µM | 9% | CCCCCCC(C(=O)O)n1cnc(NC(=O)c2c(C(=O)O)cccc2[N+](=O)[O-])c1 (stereo not drawn) [Example 40, α-Hexyl-4-[(2-carboxy-6-nitrobenzoyl)-amino]-1H-imidazole-1-acetic a cid] | – |
| 0.646 µM | 30% | CCCCCCC(CCC(=O)O)n1cnc(NC(=O)c2ccccc2C(=O)O)c1 (stereo not shown) [Example 41, 4-[(2-Carboxybenzoyl)amino]-γ-hexyl-1H-imidazole-1-butanoic acid hemihydrate] | – |
| 0.331 µM | 58% | CCCCCCC(C(=O)O)n1cnc(NC(=O)c2ccccc2-c2nnn[nH]2)c1.O (stereo not drawn) [Example 42, α-Hexyl-4-{[2-(tetrazol-5-yl)benzoyl]-amino}-1H-imidazole-1-acetic a cid monohydrate] | – |
| 0.955 µM | 0% | CCCCCCC(C(=O)O)n1cnc(NC(=O)c2ccccc2CC(=O)O)c1.O (stereo not drawn) [Example 43, 4-{[2-(Carboxymethyl)benzoyl]amino}-α-hexyl-1H-imidazole-1-aceticacid monohydrate] | – |
| 3.98 µM | 67% | CCCCCCC(C(=O)O)n1cnc(C(=O)NC2c3ccccc3-c3ccccc32)c1.Cl (stereo not drawn) [Example 44, α-Hexyl-4-{[(9H-fluoren-9-yl)amino]-carbonyl}-1H-imidazole-1-acetic acid hydrochloride] | – |
| 4.17 µM | 0% | CCCCCCC(C(=O)O)n1cnc(NC(=O)c2cccc([N+](=O)[O-])c2C(=O)O)c1.O (stereo not drawn) [Example 45, α-Hexyl-4-[(2-carboxy-3-nitrobenzoyl)-amino]-1H-imidazole-1-acetic a cid hydrate] | – |
| 5.01 µM | 39% | CCCCCCC(C(=O)O)n1nnc(NC(=O)c2ccccc2C(=O)O)n1 (stereo not drawn) [Example 47, 5-[(2-Carboxybenzoyl)amino]-α-hexyl-2H-tetrazole-2-acetic acid] | – |
| – | 41% | CCCCCCC(C(=O)O)n1cnc(C(=O)NCc2ccc(O)cc2)c1.Cl (stereo not drawn) [Example 81, α-Hexyl-4-({[(4-hydroxyphenyl)methyl]-amino}carbonyl)-1H-imidazole-1-acetic acid hydrochloride] | – |
| – | 62% | CCCCCCC(C(=O)O)n1cnc(C(=O)Nc2ccccc2O)c1.Cl (stereo not drawn) [Example 82, α-Hexyl-4-{[(2-hydroxyphenyl)amino]-carbonyl}-1H-imidazole-1-acetic acid hydrochloride] | – |
| – | 22% | CCCCC(C(=O)O)n1cnc(C(=O)Nc2ccc(O)cc2)c1.Cl (stereo not drawn) [Example 88, α-Butyl-4-{[(4-hydroxyphenyl)amino]-carbonyl}-1H-imidazole-1-acetic acid hydrochloride] | – |
| 0.24 µM | – | CCCCCCC(C(=O)O)n1cnc(NC(=O)c2cccc(NC(C)=O)c2C(=O)O)c1 (stereo not drawn) [Example 97, α-Hexyl-4-{[3-(acetylamino)-2-carboxybenzoyl]amino}-1H-imidazole-1-acetic acid hemihydrate] | – |

| SMILES | Kb [1, 3] | Adrenal Glomerulosa (% Inhibition of Binding) [2] | Kb [1] |
| --- | --- | --- | --- |
| CCCCCCC(C(=O)OCC)n1cnc(NC(=O)C(O)(c2ccccc2)c2ccccc2)c1 (stereo not drawn) [Example 14, α-Hexyl-4-[(diphenylhydroxyacetyl)amino]-1H-imidazole-1-acetic acid ethyl ester] | – | 2% | 55 µM |
| CCCCCCC(C(=O)O)c1ccc(NC(=O)C2(O)c3ccccc3-c3ccccc32)cc1 (stereo not drawn) [Example 46, α-Hexyl-4-[(9-hydroxy-9H-fluoren-9-ylcarbonyl)-amino]benzeneacetic acid] | – | 39% | 43.7 µM |

From US5073566A, “Angiotensin II antagonist 1,3-imidazoles and use thereas” (Eli Lilly and Company, priority 1989, dated 1991)
